Experimental data taken from US20230406840A1, “N-(2-(3-CYANO-2-AZABICYCLO[3.1.0]HEXAN-2-YL)-2-OXOETHYL)QUINOLINE-4-CARBOXAMIDES” (AstraZeneca AB, priority 2022, published 2023).
pIC50, pKd: −log10 of the molar value.

Key:
FAP Mouse Plasma = FAP Mouse Plasma (Mus musculus (Mouse), UniProt P97321); assay: FAP plasma inhibition assay, mouse plasma; format: biochemical; conditions: mouse plasma dilution 1:67, Ala-Pro-AMC 75 μM; n = 1
Protocol: (§1) This assay was adapted from the method described in Example 53 for detection of FAP target engagement enzyme activity in plasma. Plasma (anticoagulant K2EDTA) was used as the enzyme source: Human plasma (Pooled from AZ Biobank) and Mouse plasma (AZ AST Biobank). 384-Well black fluotrack PS plates (Greiner 781076) were used. 20 μL diluted plasma (Human plasma dilution 1:40, Mouse plasma dilution 1:67) in buffer (PBS, 0.1% BSA) was added to 0.6 μL compounds (in DMSO). Compounds were tested using 10 CR, 3-fold dilution series from 500 nM FAC. Two replicates for each assay point were run on the same plate. A fluorescence blank read was taken before substrate addition. Substrate, Ala-Pro-AMC (ARI-3144) stock solution (20 mM in DMSO) was diluted in buffer (PBS, 0.1% BSA) to 150 μM concentration and 20 μL added giving 75 μM FAC. Plates were incubated for 40 min at rt in the dark. The plates were read on a Beckman Paradigm® reader with excitation 360 nm and emission 465 nm. Data were analyzed in Excel (IDBS XLfit Add-In) using a one site dose response model (4-parameter logistic fit). […] Raw data signals were normalized using 1.5% DMSO in diluted plasma as 0% control and 1.5% DMSO in buffer (no plasma) as 100% inhibitor control.

FAP Human Plasma = FAP Human Plasma (Homo sapiens (Human), UniProt Q12884); assay: FAP plasma inhibition assay, human plasma; format: biochemical; conditions: human plasma dilution 1:40, Ala-Pro-AMC 75 μM; n = 1
Protocol: as §1

[1] = target: human dipeptidylpeptidase 7 (hDPP7) (Homo sapiens (Human), UniProt Q9UHL4); assay: hDPP7 inhibition assay; format: biochemical; conditions: highest compound concentration 10 μM; n = 1
Protocol: Compounds were tested in a biochemical inhibition assay using human dipeptidylpeptidase 7 (hDPP7) enzyme (BPS Bioscience, #80070) and the substrate Ala-Pro-amino-methylcoumarin (BPS Bioscience, #80305) at 10 μM FAC. The enzymatic reactions were conducted in duplicate at rt for 20 min in 50 μL assay buffer (10 mM Tris-HCl, pH 7.4, 10 mM MgCl2, 1 mM MnCl2). Compound solutions (in DMSO) at 10 CR, 3-fold dilution series were prepared in assay buffer ten-fold higher than the final concentration, and 5 μL of the dilution was added to a 50 μL reaction so that the highest compound concentration was 10 μM FAC and the concentration of DMSO was 1% in all wells. The plates were read on a PHERAstarPLUS (BMG) using kinetic mode with excitation 340 nm and emission 460 nm. Data were analyzed in Graph Pad Prism. Raw data signals were normalized using 1% DMSO as 0% control and no enzyme as 100% inhibitor control.

[2] = target: human dipeptidylpeptidase 9 (hDPP9) (Homo sapiens (Human), UniProt Q86TI2); assay: hDPP9 inhibition assay; format: biochemical; conditions: highest compound concentration 10 μM; n = 1
Protocol: Compounds were tested in a biochemical inhibition assay using human dipeptidylpeptidase 9 (hDPP9) enzyme (R&D, #5419-SE-010) and the substrate Gly-Pro-amino-methylcoumarin (Enzo #BML-P189-0005) at 10 μM FAC. The enzymatic reactions were conducted in duplicate at rt for 30 min in 50 μL assay buffer (50 mM Tris, pH 7.5, 0.1% BSA). Compound solutions (in DMSO) at 10 CR, 3-fold dilution series were prepared in assay buffer ten-fold higher than the final concentration, and 5 μL of the dilution was added to a 50 μL reaction so that the highest compound concentration was 10 μM FAC and the concentration of DMSO was 1% in all wells. The plates were read on a PHERAstarPLUS (BMG) using kinetic mode with excitation 340 nm and emission 460 nm. Data were analyzed in Graph Pad Prism. […] Raw data signals were normalized using 1% DMSO as 0% control and no enzyme as 100% inhibitor control.

[3] = target: human dipeptidylpeptidase 8 (hDPP8) (Homo sapiens (Human), UniProt Q6V1X1); assay: hDPP8 inhibition assay; format: biochemical; conditions: single concentration 10 μM; n = 1
Protocol: Compounds were tested in a biochemical inhibition assay using human dipeptidylpeptidase 8 (hDPP8) enzyme (BPS Bioscience, #80800) and the substrate Gly-Pro-amino-methylcoumarin (Enzo #BML-P189-0005) at 10 μM FAC. The enzymatic reactions were conducted in duplicate at rt for 20 min in 50 μL assay buffer (50 mM Tris, pH 7.5, 0.1% BSA). Compound solutions (in DMSO), were prepared in assay buffer ten-fold higher than the final concentration, and 5 μL of the dilution was added to a 50 μL reaction so that the compound concentration was 10 μM FAC and the concentration of DMSO was 1% in all wells. The plates were read on a PHERAstarPLUS (BMG) using kinetic mode with excitation 340 nm and emission 460 nm. Data were analyzed in Graph Pad Prism. Raw data signals were normalized using 1% DMSO as 0% control and no enzyme as 100% inhibitor control.

hFAP (M39-A757) = hFAP (M39-A757) (Homo sapiens (Human), UniProt Q12884)
Sequence of hFAP (M39-A757) (Q12884 39-757): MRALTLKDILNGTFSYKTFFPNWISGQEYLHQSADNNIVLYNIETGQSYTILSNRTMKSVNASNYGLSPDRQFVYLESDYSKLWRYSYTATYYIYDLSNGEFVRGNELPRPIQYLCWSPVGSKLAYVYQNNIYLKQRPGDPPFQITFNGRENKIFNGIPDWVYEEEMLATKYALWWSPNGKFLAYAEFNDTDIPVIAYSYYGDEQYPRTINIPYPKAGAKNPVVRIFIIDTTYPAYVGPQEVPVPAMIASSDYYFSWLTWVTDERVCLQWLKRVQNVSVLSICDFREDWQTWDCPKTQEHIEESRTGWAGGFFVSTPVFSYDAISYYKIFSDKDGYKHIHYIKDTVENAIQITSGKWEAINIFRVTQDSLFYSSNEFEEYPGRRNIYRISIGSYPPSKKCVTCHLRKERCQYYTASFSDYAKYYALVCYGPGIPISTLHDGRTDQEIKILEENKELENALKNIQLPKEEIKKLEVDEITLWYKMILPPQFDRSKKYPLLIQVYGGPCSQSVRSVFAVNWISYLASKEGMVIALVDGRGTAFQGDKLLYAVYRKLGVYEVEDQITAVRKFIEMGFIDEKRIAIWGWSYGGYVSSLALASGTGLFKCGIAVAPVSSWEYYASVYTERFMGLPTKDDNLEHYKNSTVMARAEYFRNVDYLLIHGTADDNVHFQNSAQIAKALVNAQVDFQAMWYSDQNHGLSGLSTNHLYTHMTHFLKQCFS
Protocol: Compounds were tested in a direct binding assay using 8K surface plasmon resonance biosensor (GE Healthcare) at 20° C. Immobilization of hFAP (M39-A757) on a CMD200M sensor chip (Xantec) was performed using standard amine coupling procedure in immobilization buffer (10 mM HEPES, 150 mM NaCl, 0.05% Tween20, pH 7.4). The surface was washed with 10 mM NaOH, 1M NaCl before being activated with EDC/NHS (GE Healthcare), followed by immobilization of hFAP (in 10 mM Acetate pH 5.0). Finally, the surface was deactivated by ethanolamine. Immobilization levels of hFAP were around 4000-6000 RU. The reference spot was treated as described, omitting the injection of hFAP. Compound concentration series were injected over the immobilized protein in increasing concentrations (2-500 nM) using single cycle kinetics in running buffer (20 mM TRIS, 150 mM NaCl, 0.05% Tween20, 1% DMSO, pH 7.4). Interaction models were fitted globally to the experimental traces, enabling determination of kon, koff and Kd.

Sequence of FAP Human Plasma (Q12884 24-760 limits assumed): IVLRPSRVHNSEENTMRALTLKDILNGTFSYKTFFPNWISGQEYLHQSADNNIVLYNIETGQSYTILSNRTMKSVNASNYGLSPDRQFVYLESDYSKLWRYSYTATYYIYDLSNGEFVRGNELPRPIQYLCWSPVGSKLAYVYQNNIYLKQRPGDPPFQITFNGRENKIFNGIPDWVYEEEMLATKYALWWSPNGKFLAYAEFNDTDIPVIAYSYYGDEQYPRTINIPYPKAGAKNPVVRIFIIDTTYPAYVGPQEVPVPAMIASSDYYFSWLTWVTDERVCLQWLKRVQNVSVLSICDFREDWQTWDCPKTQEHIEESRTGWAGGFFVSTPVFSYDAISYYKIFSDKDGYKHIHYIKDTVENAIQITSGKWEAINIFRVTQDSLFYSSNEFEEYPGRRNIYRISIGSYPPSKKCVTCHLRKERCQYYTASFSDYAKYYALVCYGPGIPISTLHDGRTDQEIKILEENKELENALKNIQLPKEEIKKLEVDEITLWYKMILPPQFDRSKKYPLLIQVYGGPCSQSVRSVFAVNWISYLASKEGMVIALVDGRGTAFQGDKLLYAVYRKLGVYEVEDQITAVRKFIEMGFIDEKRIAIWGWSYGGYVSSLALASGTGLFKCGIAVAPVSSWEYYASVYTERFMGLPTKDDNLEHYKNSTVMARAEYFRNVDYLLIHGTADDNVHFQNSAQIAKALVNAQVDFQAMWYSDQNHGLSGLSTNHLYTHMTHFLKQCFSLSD
Sequence of FAP Mouse Plasma (P97321 24-761 limits assumed): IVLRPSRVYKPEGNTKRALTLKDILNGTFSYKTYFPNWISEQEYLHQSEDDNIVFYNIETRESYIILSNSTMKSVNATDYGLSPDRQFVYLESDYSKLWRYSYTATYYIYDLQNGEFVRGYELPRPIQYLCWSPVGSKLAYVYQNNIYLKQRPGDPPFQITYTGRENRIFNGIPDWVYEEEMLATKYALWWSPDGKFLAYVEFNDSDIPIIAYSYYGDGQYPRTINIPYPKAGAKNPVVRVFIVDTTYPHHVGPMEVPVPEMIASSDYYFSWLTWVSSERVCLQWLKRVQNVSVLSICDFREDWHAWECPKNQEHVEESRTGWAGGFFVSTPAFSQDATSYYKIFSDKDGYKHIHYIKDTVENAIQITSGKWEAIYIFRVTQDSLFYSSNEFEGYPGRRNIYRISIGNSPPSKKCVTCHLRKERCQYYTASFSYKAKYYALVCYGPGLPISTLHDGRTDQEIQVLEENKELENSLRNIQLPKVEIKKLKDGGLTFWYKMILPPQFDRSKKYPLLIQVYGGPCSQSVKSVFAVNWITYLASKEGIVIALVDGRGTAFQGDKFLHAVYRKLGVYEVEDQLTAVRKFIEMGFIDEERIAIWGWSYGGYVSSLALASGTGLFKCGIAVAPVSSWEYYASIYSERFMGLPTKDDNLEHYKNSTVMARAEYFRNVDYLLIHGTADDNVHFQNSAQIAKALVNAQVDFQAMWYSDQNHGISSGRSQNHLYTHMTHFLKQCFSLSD
Sequence of human dipeptidylpeptidase 8 (hDPP8) (Q6V1X1 whole entry): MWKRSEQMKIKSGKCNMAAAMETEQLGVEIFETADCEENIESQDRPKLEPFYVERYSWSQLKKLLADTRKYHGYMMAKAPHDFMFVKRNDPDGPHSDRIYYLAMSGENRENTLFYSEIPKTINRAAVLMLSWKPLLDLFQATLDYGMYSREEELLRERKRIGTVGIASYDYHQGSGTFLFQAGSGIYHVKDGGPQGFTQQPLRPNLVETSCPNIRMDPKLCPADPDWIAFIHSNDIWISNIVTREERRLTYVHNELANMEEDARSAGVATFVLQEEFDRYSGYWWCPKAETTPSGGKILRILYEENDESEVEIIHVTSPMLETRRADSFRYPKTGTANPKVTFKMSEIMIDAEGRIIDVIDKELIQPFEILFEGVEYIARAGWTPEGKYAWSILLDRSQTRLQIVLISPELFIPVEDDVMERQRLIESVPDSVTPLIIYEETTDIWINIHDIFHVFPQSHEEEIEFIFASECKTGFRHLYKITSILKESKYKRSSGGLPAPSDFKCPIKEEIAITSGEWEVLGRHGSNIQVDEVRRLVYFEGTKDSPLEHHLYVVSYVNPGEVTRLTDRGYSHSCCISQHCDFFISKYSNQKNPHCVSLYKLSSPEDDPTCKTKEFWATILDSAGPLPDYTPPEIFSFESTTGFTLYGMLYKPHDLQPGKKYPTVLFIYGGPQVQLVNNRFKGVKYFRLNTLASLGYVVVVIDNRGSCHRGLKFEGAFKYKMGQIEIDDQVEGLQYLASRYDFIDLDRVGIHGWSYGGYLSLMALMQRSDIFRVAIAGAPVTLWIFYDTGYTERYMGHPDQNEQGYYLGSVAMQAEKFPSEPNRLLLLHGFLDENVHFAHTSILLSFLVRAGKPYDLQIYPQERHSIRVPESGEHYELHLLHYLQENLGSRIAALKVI
Sequence of human dipeptidylpeptidase 9 (hDPP9) (Q86TI2 whole entry): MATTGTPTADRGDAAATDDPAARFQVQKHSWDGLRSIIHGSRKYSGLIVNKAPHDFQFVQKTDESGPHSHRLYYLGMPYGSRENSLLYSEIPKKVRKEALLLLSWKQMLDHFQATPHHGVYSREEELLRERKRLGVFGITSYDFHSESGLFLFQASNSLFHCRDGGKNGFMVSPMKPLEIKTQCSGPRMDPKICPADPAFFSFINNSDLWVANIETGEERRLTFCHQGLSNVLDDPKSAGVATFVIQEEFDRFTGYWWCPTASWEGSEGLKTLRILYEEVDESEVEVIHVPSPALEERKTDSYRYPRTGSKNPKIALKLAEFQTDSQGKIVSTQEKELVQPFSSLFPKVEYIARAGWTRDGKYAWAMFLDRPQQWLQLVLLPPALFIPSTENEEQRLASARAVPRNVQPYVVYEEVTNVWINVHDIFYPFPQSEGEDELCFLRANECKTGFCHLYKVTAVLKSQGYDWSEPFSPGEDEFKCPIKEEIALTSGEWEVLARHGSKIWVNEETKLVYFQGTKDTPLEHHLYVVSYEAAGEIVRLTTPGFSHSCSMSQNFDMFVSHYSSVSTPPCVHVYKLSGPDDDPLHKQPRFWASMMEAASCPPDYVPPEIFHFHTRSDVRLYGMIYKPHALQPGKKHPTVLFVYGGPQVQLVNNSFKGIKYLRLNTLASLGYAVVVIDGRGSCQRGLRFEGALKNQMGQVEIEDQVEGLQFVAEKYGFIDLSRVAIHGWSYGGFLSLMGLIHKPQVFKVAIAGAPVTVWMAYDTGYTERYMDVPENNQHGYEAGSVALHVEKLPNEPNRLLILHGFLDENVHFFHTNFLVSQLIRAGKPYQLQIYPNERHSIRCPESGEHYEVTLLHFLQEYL

## Cc1ccc2c(C(=O)NCC(=O)N3[C@H](C#N)C[C@@H]4C[C@@H]43)ccnc2c1 [Example 20, N-(2-((1S,3S,5S)-3-Cyano-2-azabicyclo[3.1.0]hexan-2-yl)-2-oxoethyl)-7-methylquinoline-4-carboxamide]
FAP Mouse Plasma
  pIC50: 9.14
FAP Human Plasma
  pIC50: 8.80
[1]
  pIC50: < 8.00
[2]
  pIC50: < 8.00
[3]
  hDPP8 Activity at Compound Concentration 10 μM: Not Active

## N#C[C@@H]1C[C@@H]2C[C@@H]2N1C(=O)CNC(=O)c1ccnc2cc(C3(C#N)CC3)ccc12 [Example 40, N-(2-((1S,3S,5S)-3-Cyano-2-azabicyclo[3.1.0]hexan-2-yl)-2-oxoethyl)-7-(1-cyanocyclopropyl)quinoline-4-carboxamide]
FAP Mouse Plasma
  pIC50: 8.55
hFAP (M39-A757)
  pKd: 8.26
FAP Human Plasma
  pIC50: 8.39
